The text below walks through data of patent US12071414B2, “Apelin receptor agonists and methods of use thereof” (Sanford Burnham Prebys Medical Discovery Institute, priority 2015, dated 2024).

pEC50: −log10 of the molar value.

Usually pEC50 stands for the negative decadic logarithm of the EC50, by convention in mol/L.

The assay addresses T1, human apelin receptor (APJ, AGTRL-one, APLNR) (Homo sapiens, UniProt P35414).
T1 construct: host or cells: Chinese hamster ovary cells, stably integrated receptor
T1 sequence (P35414 1-380): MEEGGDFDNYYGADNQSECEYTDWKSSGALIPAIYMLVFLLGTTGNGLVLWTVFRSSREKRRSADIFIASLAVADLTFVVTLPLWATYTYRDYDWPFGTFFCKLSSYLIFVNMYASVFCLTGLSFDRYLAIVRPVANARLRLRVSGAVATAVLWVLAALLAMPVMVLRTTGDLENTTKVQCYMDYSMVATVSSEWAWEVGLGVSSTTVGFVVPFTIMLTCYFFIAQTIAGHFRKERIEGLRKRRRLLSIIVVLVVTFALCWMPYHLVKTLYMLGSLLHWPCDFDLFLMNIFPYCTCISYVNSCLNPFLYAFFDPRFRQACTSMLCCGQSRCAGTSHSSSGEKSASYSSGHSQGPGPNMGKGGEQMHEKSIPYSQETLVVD
The assay can be described thus: cell-based cAMP TR-FRET assay of apelin receptor activation. The settings on record: CHO cells expressing human APJ, forskolin-stimulated cAMP, 0.5 h incubation, 50% of control (apelin-13, 1 nM) response; read-out: Potency Category (EC50). As for the experimental part:
The assays disclosed herein were performed using cell lines from DiscoveX, Inc. Biological activity was determined to the cell—based assay. This assay detects activation of the receptor by reporting on intracellular cyclic adenosine monophosphate (cAMP) level. Chinese hamster ovary cells engineered to express the stably integrated human apelin receptor (APJ, AGTRL—one, APLNR), pleaded into the wells of the microtiter plate. Cells were stimulated with […] to increase intracellular cyclic AMP. Immediately following, compounds were added to the range of final concentrations 0.0-100 μM, in DMSO (not to exceed a final DMSO concentration greater than 1% ν/ν), and allowed to incubate with the cells for 0.5 h. At the end of the incubation, cells were lysed to stop APJ signaling and cAMP was quantified using a commercially available competitive immunoassay kit that applies homogenous time—resolved florescence energy transfer (TR—FRET). The assay is based on the competition between a europium (Eu) chelate—labeled cAMP donor tracer and cellular cAMP for binding sites on a cAMP—specific monoclonal antibody labeled with an acceptor fluorophore. When antibodies are bound to the cAMP tracer light emissions at 320 nm stimulate the energy transfer from the donor to the acceptor, which in turn emits light at 665 nm. In the presence of competitive unlabeled cAMP (derived from the activity of the receptor or forskolin-stimulated production of cAMP), the labelled cAMP tracer is dissociated from the cAMP antibody, resulting in a loss of FRET signal. The amount of light emitted by the FRET is inversely proportional to the cAMP generated by the cell/receptor system. Potency and efficacy at APJ are reported in reference to the canonical APJ receptor agonist apelin—13 when tested at 1 nM. […] Compound efficacy (% response) is reported as a percentage of the maximal apein-13 response at 1 nM (control). Potencies were calculated by fitting a […] logistic curve to concentration response consisting of at least 10 discrete data points spanning effective range of the compounds in the cell-based assay that measures cAMP. […] Category B is 200-500 nM; Category C is 100-200 nM; Category D is 50-100 nM; and Category E is <50 nM.
For orientation: TR-FRET usually uses a lanthanide donor and a delayed reading to cut background.
In the case of `CCS(=O)(=O)c1ccc(C(Oc2ccc(C#N)cc2)C(=O)Nc2nc3c(OC)ccc(OC)c3s2)cc1` (stereo not shown), the pEC50 is 7.00 to 7.30.

For `CCS(=O)(=O)c1ccc(C(Oc2ccc(C#N)cc2)C(=O)Nc2nc3cc(OC)ccc3s2)cc1` (stereo not shown), the pEC50 is less than 6.30.

For the compound `CCS(=O)(=O)c1ccc([C@@H](Oc2ccc(C#N)cc2)C(=O)Nc2nc3cc(OC)c(OC)cc3s2)cc1`, the pEC50 was 6.70 to 7.00.

`COc1cc2nc(NC(=O)C(Oc3ccc(C#N)cc3)c3ccc(S(=O)(=O)c4ccc(C(F)(F)F)cc4)cc3)sc2cc1OC` (stereo not shown): the pEC50 was less than 6.30.

For `COc1cc2nc(NC(=O)C(Oc3ccc(C#N)cc3)c3ccc(OCCN(C)C)cc3)sc2cc1OC` (stereo not shown), the pEC50 was greater than 7.30.

Consider `COc1cc2nc(NC(=O)C(Oc3ccc(C#N)cc3)c3ccccc3S(=O)(=O)c3ccc(F)cc3)sc2cc1OC` (stereo not shown), for which the pEC50 was 6.30 to 6.70.

For the compound `COc1ccc(S(=O)(=O)c2ccc(C(Oc3ccc(C#N)cc3)C(=O)Nc3nc4cc(OC)c(OC)cc4s3)cc2)cc1` (stereo not shown), the pEC50 is 6.70 to 7.00.

`COc1cc2nc(NC(=O)C(Oc3ccc(C(=O)N(C)C)cc3)c3ccc(C#N)cc3)sc2cc1OC` (stereo not shown): the pEC50 is greater than 7.30.

For the compound `CCS(=O)(=O)c1ccc(C(Nc2cccc(C)c2)C(=O)Nc2nc3cc(OC)c(OC)cc3s2)cc1` (stereo not shown), the pEC50 is less than 6.30.

As for `COc1cc2nc(NC(=O)C(Oc3ccc(C#N)cc3)c3ccc(C(=O)NCCN4CCCC4)cc3)sc2cc1OC` (stereo not shown), the pEC50 is 6.30 to 6.70.

For the compound `CCS(=O)(=O)c1ccc(C(C(=O)Nc2nc3cc(OC)c(OC)cc3s2)C2CCCC2)cc1` (stereo not shown), the pEC50 is less than 6.30.

For the compound `CCS(=O)(=O)c1ccc(CC(=O)Nc2nc3cc4c(cc3s2)OCCO4)cc1`, the pEC50 is less than 6.30.

For the compound `CCS(=O)(=O)c1ccc(C(Nc2ccccc2C)C(=O)Nc2nc3cc(OC)c(OC)cc3s2)cc1` (stereo not shown), the negative logarithm of the EC50 (pEC50) was less than 6.30.

In the case of `CCS(=O)(=O)c1ccc(C(Oc2ccc(C#N)cc2)C(=O)N(C)c2nc3cc(OC)c(OC)cc3s2)cc1` (stereo not shown), the pEC50 is 7.00 to 7.30.

With `CCS(=O)(=O)c1ccc(C(OCC=C(C)C)C(=O)Nc2nc3cc(OC)c(OC)cc3s2)cc1` (stereo not shown), the pEC50 is less than 6.30.

For `CCS(=O)(=O)c1ccc(C(Oc2ccc(C#N)cc2)C(=O)Nc2nc3cc(OCC4CC4)c(OC)cc3s2)cc1` (stereo not shown), the pEC50 is less than 6.30.

For the compound `CCS(=O)(=O)c1ccc(C(OC2CCOCC2)C(=O)Nc2nc3cc(OC)c(OC)cc3s2)cc1` (stereo not shown), the pEC50 is less than 6.30.

As to `CCS(=O)(=O)c1ccc(C(Oc2ccccc2)C(=O)Nc2nc3cc(OC)c(OC)cc3s2)cc1` (stereo not shown), the pEC50 is less than 6.30.

Regarding `CCS(=O)(=O)c1ccc(C2(C(=O)Nc3nc4cc(OC)c(OC)cc4s3)CC2)cc1`, the pEC50 was less than 6.30.

`COc1cc2nc(NC(=O)C(Oc3ccc(C#N)cc3)c3ccc(S(=O)(=O)c4ccc(F)cc4)cc3)sc2cc1OC` (stereo not shown): the pEC50 is 6.70 to 7.00.

With `CCS(=O)(=O)c1ccc(C(Oc2ccc(C#N)cc2)C(=O)Nc2nc3ccc(OC)c(OC(C)C)c3s2)cc1` (stereo not shown), the pEC50 was greater than 7.30.

In the case of `COc1cc2nc(NC(=O)C(Oc3ccc(C#N)cc3)c3ccc(C(=O)N4CCN(C)CC4)cc3)oc2cc1OC` (stereo not shown), the pEC50 was greater than 7.30.

Turning to `CCS(=O)(=O)c1ccc(C(Oc2ccc(C#N)c(F)c2)C(=O)Nc2nc3cc(OC)c(OC)cc3s2)cc1` (stereo not shown), the negative logarithm of the EC50 (pEC50) was greater than 7.30.

With `CCS(=O)(=O)c1ccc(C(Oc2ccc(OC)cc2)C(=O)Nc2nc3cc(OC)c(OC)cc3s2)cc1` (stereo not shown), the pEC50 is less than 6.30.

Take `CCCCS(=O)(=O)c1cccc(C(Oc2ccc(C#N)cc2)C(=O)Nc2nc3cc(OC)c(OC)cc3s2)c1` (stereo not shown): the pEC50 was 7.00 to 7.30.

Regarding `CCS(=O)(=O)c1ccc(C(Oc2ccc(C#N)cc2C)C(=O)Nc2nc3cc(OC)c(OC)cc3s2)cc1` (stereo not shown), the pEC50 is greater than 7.30.

As for `COc1cc2nc(NC(=O)C(Oc3ccc(C#N)cc3)c3ccc(-c4nnn[nH]4)cc3)sc2cc1OC` (stereo not shown), the pEC50 is less than 6.30.

In the case of `CCCCS(=O)(=O)c1ccc(C(Oc2ccc(C#N)cc2)C(=O)Nc2nc3cc(OC)c(OC)cc3s2)cc1` (stereo not shown), the pEC50 was greater than 7.30.

With `CCS(=O)(=O)c1ccc(C(Oc2ccc(C(C)C)cc2)C(=O)Nc2nc3cc(OC)c(OC)cc3s2)cc1` (stereo not shown), the pEC50 is 6.30 to 6.70.

Consider `COc1cc2nc(NC(=O)C(Oc3ccc(C(=O)NCCN4CCCCC4)cc3)c3ccc(C#N)cc3)sc2cc1OC` (stereo not shown), for which the pEC50 was greater than 7.30.

Consider `COc1cc2nc(NC(=O)C(Oc3ccc(C#N)cc3)c3ccccc3S(=O)(=O)C(C)C)sc2cc1OC` (stereo not shown), for which the pEC50 was 6.70 to 7.00.

Consider `COc1cc2nc(NC(=O)Cc3cccc(S(=O)(=O)C4CCCC4)c3)sc2cc1OC`, for which the pEC50 is less than 6.30.

In the case of `COc1cc2nc(NC(=O)C(Oc3ccc(C#N)cc3)c3ccc(OCCN4CCCC4)cc3)sc2cc1OC` (stereo not shown), the pEC50 was 6.30 to 6.70.

As to `CCS(=O)(=O)c1ccc(C(OCCOC)C(=O)Nc2nc3cc(OC)c(OC)cc3s2)cc1` (stereo not shown), the pEC50 was less than 6.30.

As to `CCS(=O)(=O)c1ccc(C(Oc2ccc(OC)cc2)C(=O)Nc2nc3ccc4c(c3s2)OCO4)cc1` (stereo not shown), the pEC50 was less than 6.30.

On to `COc1cc2nc(NC(=O)C(Oc3ccc(C#N)cc3)c3ccccc3S(=O)(=O)Cc3ccccc3)sc2cc1OC` (stereo not shown), for which the pEC50 was greater than 7.30.

In the case of `CCS(=O)(=O)c1ccc(C(OC2CCCC2)C(=O)Nc2nc3cc(OC)c(OC)cc3s2)cc1` (stereo not shown), the pEC50 is less than 6.30.

Turning to `CCS(=O)(=O)c1ccc(C(Oc2ccc(C#N)cc2)C(=O)Nc2nc3ccc(OCCN4CCOCC4)cc3s2)cc1` (stereo not shown), the pEC50 was less than 6.30.

In the case of `COc1cc2nc(NC(=O)Cc3cccc(S(=O)(=O)CC4CC4)c3)sc2cc1OC`, the negative-log EC50 (pEC50) was less than 6.30.

For `CCS(=O)(=O)c1ccc(C(Oc2ccc(C#N)cc2)C(=O)Nc2nc3ccc(OCCO)cc3s2)cc1` (stereo not shown), the pEC50 is less than 6.30.

Regarding `COc1cc2nc(NC(=O)Cc3ccc(S(=O)(=O)N(C)C)cc3)sc2cc1OC`, the pEC50 was less than 6.30.

Regarding `COc1cc2nc(NC(=O)C(Oc3ccc(C(=O)O)cc3)c3ccc(C#N)cc3)sc2cc1OC` (stereo not shown), the pEC50 was less than 6.30.

As to `COc1cc2nc(NC(=O)C(Oc3ccc(C#N)cc3)c3cccc(S(=O)(=O)c4ccc(F)cc4)c3)sc2cc1OC` (stereo not shown), the pEC50 was 6.30 to 6.70.

Regarding `CCS(=O)(=O)c1ccc(C(Oc2ccc(C#N)cc2)C(=O)Nc2nc3ncc(OC)cc3s2)cc1` (stereo not shown), the pEC50 is less than 6.30.

As for `COc1cc2nc(NC(=O)C(Oc3ccc(-c4nnn[nH]4)cc3)c3ccc(C#N)cc3)sc2cc1OC` (stereo not shown), the pEC50 was less than 6.30.

For the compound `COCCOc1ccc(C(Oc2ccc(C#N)cc2)C(=O)Nc2nc3cc(OC)c(OC)cc3s2)cc1` (stereo not shown), the pEC50 was greater than 7.30.

In the case of `CCS(=O)(=O)c1ccc(C(Cc2ccccc2)C(=O)Nc2nc3cc(OC)c(OC)cc3s2)cc1` (stereo not shown), the pEC50 is less than 6.30.

Take `CCS(=O)(=O)c1ccc(C(Oc2ccc(C#N)cc2)C(=O)Nc2cc3cc(OC)c(OC)cc3[nH]2)cc1` (stereo not shown): the pEC50 was less than 6.30.

Take `CCc1ccc(OC(C(=O)Nc2nc3cc(OC)c(OC)cc3s2)c2ccc(S(=O)(=O)CC)cc2)cc1` (stereo not shown): the pEC50 is 6.30 to 6.70.

Take `COc1cc2nc(NC(=O)C(Oc3ccc(C#N)cc3)c3cccc(Br)c3)sc2cc1OC` (stereo not shown): the pEC50 was less than 6.30.

Turning to `COc1cc2nc(NC(=O)C(Oc3ccc(C#N)cc3)c3ccc(C(=O)NCCN(C)C)cc3)sc2cc1OC` (stereo not shown), the pEC50 was 7.00 to 7.30.

In the case of `CCCOc1ccc(OC(C(=O)Nc2nc3cc(OC)c(OC)cc3s2)c2ccc(S(=O)(=O)CC)cc2)cc1` (stereo not shown), the pEC50 was 6.30 to 6.70.

Regarding `COc1cc2nc(NC(=O)C(Oc3ccc(C#N)cc3)c3ccc(C(=O)NCCN4CCCCC4)cc3)sc2cc1OC` (stereo not shown), the pEC50 was greater than 7.30.

Consider `CCS(=O)(=O)c1ccc(C(Oc2ccccc2I)C(=O)Nc2nc3cc(OC)c(OC)cc3s2)cc1` (stereo not shown), for which the pEC50 is 6.30 to 6.70.

On to `COCCS(=O)(=O)c1ccc(CC(=O)Nc2nc3cc(OC)c(OC)cc3s2)cc1`, for which the pEC50 was less than 6.30.

As for `CCS(=O)(=O)c1ccc(C(Oc2ccc(C#N)cc2C(F)(F)F)C(=O)Nc2nc3cc(OC)c(OC)cc3s2)cc1` (stereo not shown), the pEC50 is 6.70 to 7.00.

For the compound `CCS(=O)(=O)c1ccc(CC(=O)Nc2nc3c4c(ccc3s2)OCO4)cc1`, the pEC50 is less than 6.30.

In the case of `CCS(=O)(=O)c1ccc(C(Oc2cccc(C)c2)C(=O)Nc2nc3cc(OC)c(OC)cc3s2)cc1` (stereo not shown), the pEC50 is less than 6.30.

In the case of `CCS(=O)(=O)c1ccc(C(Oc2ccc(Cl)cc2)C(=O)Nc2nc3cc(OC)c(OC)cc3s2)cc1` (stereo not shown), the pEC50 was 6.70 to 7.00.

Take `COc1cc2nc(NC(=O)C(Oc3ccc(C#N)cc3)c3cccc(S(=O)(=O)Cc4ccccc4)c3)sc2cc1OC` (stereo not shown): the pEC50 was greater than 7.30.

Turning to `CCN(CC)c1ccc2sc(NC(=O)C(Oc3ccc(C#N)cc3)c3ccc(S(=O)(=O)CC)cc3)nc2c1` (stereo not shown), the pEC50 is less than 6.30.
